Data published in PubChem BioAssay (NCI).
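Exposure lasted 48 hours, with cells grown in 96-well plates and compounds tested at five concentrations. TGI denotes the concentration required for complete inhibition of growth.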

Legend:
Test in all cases: growth of human tumour cells (NCI), 48 h
[1] = test system: HL-60(TB) leukemia
[2] = test system: HOP-92 NSCLC
[3] = test system: M14 melanoma
[4] = test system: MDA-MB-435
[5] = test system: MDA-N
[6] = test system: SF-268 CNS
[7] = test system: SNB-19 CNS
[8] = test system: SR leukemia
[9] = test system: U251 CNS
[10] = test system: UO-31 renal

Row | Compound | TGI [1] [µM] | TGI [2] [µM] | TGI [3] [µM] | TGI [4] [µM] | TGI [5] [µM] | TGI [6] [µM] | TGI [7] [µM] | TGI [8] [µM] | TGI [9] [µM] | TGI [10] [µM]
1 | CC(C)CC(=O)NC(Nc1ccc(S(=O)(=O)Nc2ncccn2)cc1)(C(F)(F)F)C(F)(F)F | > 100 | > 100 | > 100 | > 100 | > 100 | > 100 | > 100 | > 100 | > 100 | > 100
2 | COc1cc2c(cc1OC)C1CN3C(=O)CCC3C(O)C1c1cc(OC)c(OC)cc1-2 (centres undefined) | > 100 | > 100 | > 100 | > 100 | > 100 | > 100 | > 100 | > 100 | > 100 | > 100
3 | c1ccc2c(c1)c1c(n2CCOCCN2CCCCC2)CCCC1 | 8.33 | 22.3 | 25.7 | 26.6 | 28.7 | 37.7 |  | 36 | 32.7 | 24.6
4 | O=C1NN=C(c2ccc(Cl)cc2)CC1C1C(=O)N(c2ccccc2)N=C1c1ccccc1 (centres undefined) | > 100 |  | > 100 | 77.4 | > 100 | > 100 | > 100 | > 100 | 82.9 | 56.6
5 | CCSc1ncnc2c(C3OC(CO)C(O)C3O)nsc12 (centres undefined) | > 100 | > 100 | > 100 | > 100 | > 100 | > 100 |  | > 100 | > 100 | 
6 | CC(C)OC(=O)c1ccc(NCC2=CC(=O)C=CC2=O)cc1Cl | > 21.8 | 14.4 | > 100 | 35.1 | 25.2 | 35.2 | 44.2 | 8.22 | 54.9 | 13.9
7 | Cc1cc(NS(=O)(=O)c2ccc(NC(=O)c3ccc4nc5ccccc5c(Nc5ccc(S(=O)(=O)N=C(N)N)cc5)c4c3)cc2)no1 | 46.2 | 67.6 | 34.6 | 35.3 | 41.4 | 37.3 | 94.3 | 46.7 | 30 | 32.1
8 | CC1CN=C(Nc2cccc(C(F)(F)F)c2)S1 (centres undefined) | 77 |  | > 100 | > 100 | > 100 | > 100 | > 100 | > 100 | > 100 | 78.6
9 | CCOC(=O)c1c(SC(=O)c2cc(OC)c(OC)c(OC)c2)n(-c2ccccc2)c(=S)n(-c2ccccc2)c1=O | > 100 | > 100 | > 100 | > 100 | > 100 | > 100 | > 100 | > 100 | > 100 | 
